Test results reported in patent US20140135326A1, “METHOD OF TREATMENT OF AGGRESSION” (Supernus Pharmaceuticals, Inc., priority 2012, published 2014).

How the values were obtained:
Type in all cases: in vivo, human
[1] = system: impulsive aggression in ADHD patients; assay: Phase IIb study, rate of remission of aggression (R-MOAS ≦ 10); conditions: for Remission Rate at End of Study (Visit 10): R-MOAS ≦ 10, LOCF
Procedure: (§1) A Phase IIb study was conducted for the treatment of impulsive aggression in Attention Deficit and Hyperactivity Disorder (ADHD) patients with a pharmaceutical preparation of molindone. The study was a multi-center randomized, double-blind, placebo controlled clinical trial in children 6 to 12 diagnosed with ADHD and characterized by impulsive aggression that is not controlled by optimal stimulant and psychosocial treatment. It was a dose finding study with the primary objective of identifying an effective dose range in children of different weight or age groups. The children were divided into two […] (i.e., less than 30 kg and greater than or equal to 30 kg). The low, medium, and high doses for the under 30 kg group were 12 mg, 24 mg, and 36 mg, respectively. Similarly, the low, medium, and high doses for the 30 kg and over group were 18 mg, 36 mg, and 54 mg, respectively. Three doses of molindone were studied with the primary endpoints of (a) effect in reducing impulsive aggression (measured with change in the score of the Retrospective-Modified Overt Aggression Scale “R-MOAS” at the end of the study from the baseline), and (b) rate of remission of aggression, after at least three weeks of treatment. Secondary objectives included safety and tolerability of molindone as well as the effect on the Clinical Global Impression and the Oppositional […] Disorder subscale score of the SNAP-IV Questionnaire and other endpoints [e.g., SNAP, clinical labs, AEs, etc.]. Patients who completed the study were offered the opportunity to continue into an open-label phase of six months duration.

[2] = Phase IIb study, safety and tolerability; conditions: throughout the study, across all doses
Procedure: A Phase IIb study was conducted for the treatment of impulsive aggression in Attention Deficit and Hyperactivity Disorder (ADHD) patients with a pharmaceutical preparation of molindone. The study was a multi-center randomized, double-blind, placebo controlled clinical trial in children 6 to 12 diagnosed with ADHD and characterized by impulsive aggression that is not controlled by optimal stimulant and psychosocial treatment. It was a dose finding study with the primary objective of identifying an effective dose range in children of different weight or age groups. The children were divided into two […] (i.e., less than 30 kg and greater than or equal to 30 kg). The low, medium, and high doses for the under 30 kg group were 12 mg, 24 mg, and 36 mg, respectively. Similarly, the low, medium, and high doses for the 30 kg and over group were 18 mg, 36 mg, and 54 mg, respectively. Three doses of molindone were studied with the primary endpoints of (a) effect in reducing impulsive aggression (measured with change in the score of the Retrospective-Modified Overt Aggression Scale “R-MOAS” at the end of the study from the baseline), and (b) rate of remission of aggression, after at least three weeks of treatment. Secondary objectives included safety and tolerability of molindone as well as the effect on the Clinical Global Impression and the Oppositional […] […]

[3] = system: impulsive aggression in ADHD patients; assay: Phase IIb study, R-MOAS score change from baseline
Procedure: as §1

For CCc1c(C)[nH]c2c1C(=O)C(CN1CCOCC1)CC2 (stereo not drawn) [molindone], which “Remission, Treatment vs Placebo Odds Ratio” value ([1]; <30 kg, high dose (36 mg)) is on record?
Its value is 0.62.

And the “Remission, Treatment vs Placebo Odds Ratio” value ([1]; <30 kg, low dose (12 mg))?
Its value is 1.53.

What about the “Remission, Treatment vs Placebo Odds Ratio” value ([1]; <30 kg, medium dose (24 mg)) of the same compound?
Its value is 1.36.

What about the “Remission Rate at End of Study (Visit 10)” value (“Remission Rate at End” for short) ([1]; <30 kg, high dose (36 mg)) of the same compound?
Its value is 3 (21.4) n(%).

What about the “Remission Rate at End” value ([1]; <30 kg, low dose (12 mg)) of the same compound?
Its value is 4 (33.3) n(%).

What about the “Remission Rate at End” value ([1]; <30 kg, medium dose (24 mg)) of the same compound?
The value was 4 (26.7) n(%).

And the “Remission Rate at End” value ([1]; ≧30 kg, high dose (54 mg))?
The value was 7 (41.2) n(%).

And the “Remission Rate at End” value ([1]; ≧30 kg, low dose (18 mg))?
The value was 10 (66.7) n(%).

And the “Remission Rate at End” value ([1]; ≧30 kg, medium dose (36 mg))?
Its value is 8 (53.3) n(%).

And the “Remission, Treatment vs Placebo Odds Ratio” value ([1]; ≧30 kg, high dose (54 mg))?
Its value is 4.07.

What about the “Remission, Treatment vs Placebo Odds Ratio” value ([1]; ≧30 kg, low dose (18 mg)) of the same compound?
The value was 12.08.

What about the “Remission, Treatment vs Placebo Odds Ratio” value ([1]; ≧30 kg, medium dose (36 mg)) of the same compound?
The value was 7.07.

What about the tolerability [2] of the same compound?
Its tolerability is “well tolerated”.

And the “efficacy across any of the measures” value ([3]; 30 kg or more, high dose (54 mg))?
Its value is “did not show efficacy”.

What about the “R-MOAS (LOCF) Change from Baseline, mean (SD)” value (shortened to “R-MOAS (LOCF) Change … (SD)”) ([3]; <30 kg, high dose (36 mg)) of the same compound?
The value was −16.4 (36.90).

What about the “R-MOAS (LOCF) End of treatment (visit 10), mean (SD)” value (“R-MOAS (LOCF) End … (SD)” below) ([3]; <30 kg, high dose (36 mg)) of the same compound?
Its value is 32.2 (24.14).

What about the “R-MOAS (LOCF) Change … (SD)” value ([3]; <30 kg, low dose (12 mg)) of the same compound?
The value was −25.1 (23.00).

What about the “R-MOAS (LOCF) End … (SD)” value ([3]; <30 kg, low dose (12 mg)) of the same compound?
The value was 34.2 (27.29).

And the “R-MOAS (LOCF) Change … (SD)” value ([3]; <30 kg, medium dose (24 mg))?
Its value is −30.7 (31.22).

What about the “R-MOAS (LOCF) End … (SD)” value ([3]; <30 kg, medium dose (24 mg)) of the same compound?
Its value is 38.5 (36.70).

And the “statistical significance vs placebo on the R-MOAS endpoint” value ([3]; patients under 30 kg, the studied doses (12, 24, 36 mg))?
The value was “did not show statistical significance”.

What about the “R-MOAS (LOCF) Change … (SD)” value ([3]; ≧30 kg, high dose (54 mg)) of the same compound?
Its value is −23.0 (27.55).

What about the “R-MOAS (LOCF) End … (SD)” value ([3]; ≧30 kg, high dose (54 mg)) of the same compound?
The value was 28.8 (40.60).

What about the “R-MOAS (LOCF) Change … (SD)” value ([3]; ≧30 kg, low dose (18 mg)) of the same compound?
The value was −41.7(32.48).

And the “R-MOAS (LOCF) End … (SD)” value ([3]; ≧30 kg, low dose (18 mg))?
The value was 9.8 (13.01).

What about the “R-MOAS (LOCF) Change … (SD)” value ([3]; ≧30 kg, medium dose (36 mg)) of the same compound?
Its value is −40.9(34.84).

And the “R-MOAS (LOCF) End … (SD)” value ([3]; ≧30 kg, medium dose (36 mg))?
The value was 13.5(15.71).
